Data: publication PMC6463023, “Epigenetic Changes at the Birc5 Promoter Induced by YM155 in Synovial Sarcoma” (Journal of Clinical Medicine, 2019)

Columns and labels:
caspase 3/7 = assay: Caspase-Glo 3/7 activity in HS-SY-II cells; format: cell-based, human; conditions: 24 h incubation
Procedure: (§1) Cells were seeded in a 96-well tissue culture dish at 1 × 10^4 cells per well. Twenty-four hours after seeding, serial dilutions of YM155 were applied so that the final concentration ranged from 10 μM to 1 nM. Between 24 to 48 h, MTT at 5 mg/mL was applied, and the cells were allowed to incubate at 37 °C and 5% CO2 for 2.5 h. Formazan crystals were resolubilized in 10% SDS and 0.01 M HCl. Absorbance was measured at 570 nm and normalized to 650 nm. Caspase activity was measured using the Caspase-Glo 3/7 and Caspase-Glo 8 (Promega, G8090, and G8200) assay systems. The manufacturer’s instructions were followed for a 96-well plate assay.

[1] = tested on: SYO-1 human synovial sarcoma cell line; assay: MTT viability assay, SYO-1 cells, 48 h; format: cell-based; conditions: 48 h treatment
Procedure: as §1, with “The human SYO-1, Yamato, and HS-SY-II cell lines were received from Torsten Nielsen at the University of British Columbia. The MoJo cell line was developed as previously described from a consented patient’s synovial sarcoma. Each was maintained in Dulbecco’s modified Eagle medium (DMEM) with 10% fetal bovine serum (FBS) and tested for mycoplasma using MycoAlert Plus (Lonza, Walkersville, MD, USA) every 6 months. Cells” for “Cells”

survivin [2] = assay: Survivin immunoblot of treated mouse synovial sarcomas; format: in vivo; conditions: mouse sarcomas after 11 days of YM155; p = 0.034
Procedure: (§2) Mice had tumors initiated at 1 month of age. Tumors developed for the next 6 months allowing tumor volumes to reach 500–1000 mm^3. Mice were then subjected to daily intraperitoneal injections of 20 mg/kg of YM155 for 11 days. One mouse with bilateral tumors was censored at day 7. Tumors were measured using digital calipers and volumes were calculated using the equation (L∗W^2)/2. A small portion of the tumor was fixed in 4% paraformaldehyde overnight and then embedded in paraffin. The rest of the tumor was flash frozen in liquid nitrogen and stored at −80 °C until further use.
(§3) Protein was isolated from cells or tissues by incubating in a mild lysis buffer (10 mM Tris-HCl pH 8.1, 10 mM NaCl, 0.5% NP-40, and proteinase inhibitors). The fractions were clarified at 14,000 rpm for 10 min before loading 25–50 μg/sample for gel electrophoresis and transfer to PVDF membrane. Western blots were probed with the following primary antibodies: anti-Survivin (Cell Signaling Technology, 2808, 1:1000), anti-NFκB/p65 (Cell Signaling Technology, 8242, 1:800) anti-GAPDH (Proteintech, 10494-1-AP, 1:1000). The immunoblots were probed secondarily with goat anti-rabbit antibodies conjugated with horse radish peroxidase and bands were detected using Bio-Rad Gel Doc MP imaging station.

BIRC5 = BIRC5 transcript level by PCR normalized to GAPDH; format: cell-based, human; conditions: HS-SY-II, 24 h, normalized to GAPDH mRNA; p = 0.0006
[3] = tested on: Mojo human synovial sarcoma cell line; assay: MTT viability assay, MoJo cells, 48 h; format: cell-based; conditions: 48 h treatment
Procedure: as §1, with “The human SYO-1, Yamato, and HS-SY-II cell lines were received from Torsten Nielsen at the University of British Columbia. The MoJo cell line was developed as previously described from a consented patient’s synovial sarcoma. Each was maintained in Dulbecco’s modified Eagle medium (DMEM) with 10% fetal bovine serum (FBS) and tested for mycoplasma using MycoAlert Plus (Lonza, Walkersville, MD, USA) every 6 months. Cells” for “Cells”

caspase 8 = assay: Caspase-Glo 8 activity in HS-SY-II cells; format: cell-based, human; conditions: 24 h incubation
Procedure: as §1

[4] = tested on: NFκB binding to the BIRC5 promoter; assay: ChIP-qPCR for NFκB at the BIRC5 promoter in HS-SY-II cells; format: cell-based, human; conditions: 0.2 μM YM155, 24 h, vs control, p = 0.32
Procedure: Mouse tumors were pulverized in a Covaris tissueTUBE attached to a Covaris glass tube (13 × 65 mm) using a hammer and an aluminum block on dry ice. Samples were intermittently placed in liquid nitrogen to maintain molecular interactions. The powderized tissue was resuspended in PBS + protease inhibitors (Sigma, 11836153001, St. Louis, MO, USA) and fixed in 1% formaldehyde for 10 min at room temperature. The cross linking was quenched by adding 125 mM glycine. Samples were washed three times using cold PBS and cold centrifugation at 1000× g for 5 min. Similarly, cells can be fixed in 1% formaldehyde and washed while cells are still adherent to the bottom of the tissue culture dish. Cells in both cases were lysed using cold Farnham cell lysis buffer (5mM PIPES pH 8.0, 85 mM KCl, 0.5% NP-40) with protease inhibitors by incubating on ice for 10 min. Cells were collected and dounced with a glass tube and rod 20 times with a loose rod and 10 times with a tight rod. Samples were filtered through 70 μm filter and centrifuged at 1000× g for 10 min. The supernatant was removed and 1 mL of RIPA lysis buffer (1% NP-40, 0.5% Na deoxycholate, 0.1% SDS/PBS) was added for every 300 mg of tissue or 1 × 10^7 cells and incubated on ice for 10 min. Sonication proceeded in the following manner: 1 mL aliquots were sonicated with a 30 s on and 30 s off cycle for 8 cycles totaling 4 min of sonication time. […]

[5] = Body weight of mice during YM155 treatment; format: in vivo, mouse; conditions: 20 mg/kg daily for 11 days
Procedure: as §2

NFκB = NFκB immunoblot of treated mouse synovial sarcomas; format: in vivo; conditions: mouse sarcomas after 11 days of YM155; p = 0.015
Procedure: as §2, §3

synovial sarcoma = assay: YM155 in combination with BCL2 inhibitors
[6] = set-up: method as in PMID 18824702; conditions: patients, clinical trials; cited from earlier work
BIRC5 promoter [7] = assay: ChIP-qPCR of histone marks at the BIRC5 promoter in HS-SY-II cells; format: cell-based, human; conditions: 0.2 μM YM155, 24 h, vs controls
Procedure: Mouse tumors were pulverized in a Covaris tissueTUBE attached to a Covaris glass tube (13 × 65 mm) using a hammer and an aluminum block on dry ice. Samples were intermittently placed in liquid nitrogen to maintain molecular interactions. The powderized tissue was resuspended in PBS + protease inhibitors (Sigma, 11836153001, St. Louis, MO, USA) and fixed in 1% formaldehyde for 10 min at room temperature. The cross linking was quenched by adding 125 mM glycine. Samples were washed three times using cold PBS and cold centrifugation at 1000× g for 5 min. Similarly, cells can be fixed in 1% formaldehyde and washed while cells are still adherent to the bottom of the tissue culture dish. Cells in both cases were lysed using cold Farnham cell lysis buffer (5mM PIPES pH 8.0, 85 mM KCl, 0.5% NP-40) with protease inhibitors by incubating on ice for 10 min. Cells were collected and dounced with a glass tube and rod 20 times with a loose rod and 10 times with a tight rod. Samples were filtered through 70 μm filter and centrifuged at 1000× g for 10 min. The supernatant was removed and 1 mL of RIPA lysis buffer (1% NP-40, 0.5% Na deoxycholate, 0.1% SDS/PBS) was added for every 300 mg of tissue or 1 × 10^7 cells and incubated on ice for 10 min. Sonication proceeded in the following manner: 1 mL aliquots were sonicated with a 30 s on and 30 s off cycle for 8 cycles totaling 4 min of sonication time. Sonicated samples were centrifuged at 1400 rpm for 5 min and the supernatant was kept for chromatin immunoprecipitation.
Dynabeads (Invitrogen, 11204D, Carlsbad, CA, USA) were washed in 0.5 mg/mL BSA/PBS three times on a magnet. Sonicated samples were precleared with 30 μL of beads for 1 h at 4 °C. After preclearing, 50 μL of the sample was set aside as the input DNA. Supernatants were transferred to a new tube and 5 μg of primary antibodies were added and incubated overnight at 4 °C. The following antibodies were used for immunoprecipitation. […]

Birc5 promoter [8] = assay: ChIP-qPCR of histone marks at the Birc5 promoter in treated mouse synovial sarcomas; format: in vivo; conditions: mouse synovial sarcomas treated 11 days, vs controls
Procedure: as §2
Mouse tumors were pulverized in a Covaris tissueTUBE attached to a Covaris glass tube (13 × 65 mm) using a hammer and an aluminum block on dry ice. Samples were intermittently placed in liquid nitrogen to maintain molecular interactions. The powderized tissue was resuspended in PBS + protease inhibitors (Sigma, 11836153001, St. Louis, MO, USA) and fixed in 1% formaldehyde for 10 min at room temperature. The cross linking was quenched by adding 125 mM glycine. Samples were washed three times using cold PBS and cold centrifugation at 1000× g for 5 min. Similarly, cells can be fixed in 1% formaldehyde and washed while cells are still adherent to the bottom of the tissue culture dish. […]

[9] = tested on: HS-SY-II human synovial sarcoma cell line; assay: MTT viability assay, HS-SY-II cells, 24 h; format: cell-based; conditions: 24 h viability assay
Procedure: as §1, with “The human SYO-1, Yamato, and HS-SY-II cell lines were received from Torsten Nielsen at the University of British Columbia. The MoJo cell line was developed as previously described from a consented patient’s synovial sarcoma. Each was maintained in Dulbecco’s modified Eagle medium (DMEM) with 10% fetal bovine serum (FBS) and tested for mycoplasma using MycoAlert Plus (Lonza, Walkersville, MD, USA) every 6 months. Cells” for “Cells”

[10] = tested on: Yamato human synovial sarcoma cell line; assay: MTT viability assay, Yamato cells, 48 h; format: cell-based; conditions: 48 h treatment
Procedure: as §1, with “The human SYO-1, Yamato, and HS-SY-II cell lines were received from Torsten Nielsen at the University of British Columbia. The MoJo cell line was developed as previously described from a consented patient’s synovial sarcoma. Each was maintained in Dulbecco’s modified Eagle medium (DMEM) with 10% fetal bovine serum (FBS) and tested for mycoplasma using MycoAlert Plus (Lonza, Walkersville, MD, USA) every 6 months. Cells” for “Cells”

[11] = tested on: synovial sarcomas expressing Rosa26-LSL-SS18-SSX2; assay: Tumor growth in genetically engineered mouse model of synovial sarcoma; format: in vivo
Procedure: Mouse experiments were conducted with the approval of the University of Utah’s Institutional Animal Care Committee in accordance with legal and ethical standards established by the National Research Council and published in the Guide for the Care and Use of Laboratory Animals (protocol # 14-01016). The previously described Rosa26-LSL-SS18-SSX2 mice were maintained on a mixed strain background, C57BL/6 and SvJ. Mice were genotyped with the following primers: Rosa26-LSL-SS18-SSX2 (F flox-[…], F wt–[…]-TGG, R-[…]). TATCre was dosed by 10 μL intramuscular injections at 50 μM at 1 month of age.
as §2
The control mice group with tumor was compared to the YM155 treated tumor group in a single factor ANOVA statistical test. For most comparisons between control and YM155 treated synovial sarcomas, Student’s t-tests were performed.

survivin [12] = tested on: survivin; set-up: method as in PMID 20816704; conditions: cited from earlier work

COCCn1c2c([n+](Cc3cnccn3)c1C)C(=O)c1ccccc1C2=O [YM155, sepantronium bromide]
caspase 3/7 activity (caspase 3/7): increased with higher concentrations
EC50 [1]: 103 nM
survivin protein level (immunoblot, normalized to GAPDH) (survivin [2]): striking decrease
reduction in normalized BIRC5 expression (BIRC5): 39.5%
EC50 [3]: 62 nM
caspase 8 activity (caspase 8): increased with higher concentrations
binding of NFκB to the BIRC5 promoter (ChIP-qPCR) [4]: unable to detect a difference
weight loss in treated mice [5]: no detectable weight loss
NFκB protein level (immunoblot, normalized to GAPDH) (NFκB): striking increase
synergy of combination with BCL2 inhibitors (synovial sarcoma): minimally synergistic
dose associated with adverse events [6]: above 4.8 mg/m^2/day
H3K4me1 at the BIRC5 promoter (ChIP-qPCR) (BIRC5 promoter [7]): a decrease
H3K27ac at the Birc5 promoter (ChIP-qPCR) (BIRC5 promoter [7]): elevated levels
H3K27me3 at the Birc5 promoter (ChIP-qPCR) (BIRC5 promoter [7]): elevated levels
H3K27me3 at the Birc5 promoter (ChIP-qPCR) (Birc5 promoter [8]; p = 0.045): elevated levels
H3K27ac at the Birc5 promoter (ChIP-qPCR) (Birc5 promoter [8]; p = 0.14): elevated levels
EC50 [9]: 2640 ± 140 nM
EC50 [10]: 22 nM
decrease of tumor growth (mean) over 11 days ([11]; 20 mg/kg daily intraperitoneal for 11 days, control tumors 1.78-fold increase, p = 0.028): 17%
reduction in tumor volume compared to control treated mice ([11]; treated mice with synovial sarcoma): 50%

Cc1ccc(S(=O)(=O)/C=C/C#N)cc1 [BAY 11-7082]
survivin levels upon inhibition of NFκB (survivin [12]): decrease in survivin levels
